Target: T1, PIP4K2C (Homo sapiens, UniProt Q8TBX8)
T1 sequence (Q8TBX8 1-421): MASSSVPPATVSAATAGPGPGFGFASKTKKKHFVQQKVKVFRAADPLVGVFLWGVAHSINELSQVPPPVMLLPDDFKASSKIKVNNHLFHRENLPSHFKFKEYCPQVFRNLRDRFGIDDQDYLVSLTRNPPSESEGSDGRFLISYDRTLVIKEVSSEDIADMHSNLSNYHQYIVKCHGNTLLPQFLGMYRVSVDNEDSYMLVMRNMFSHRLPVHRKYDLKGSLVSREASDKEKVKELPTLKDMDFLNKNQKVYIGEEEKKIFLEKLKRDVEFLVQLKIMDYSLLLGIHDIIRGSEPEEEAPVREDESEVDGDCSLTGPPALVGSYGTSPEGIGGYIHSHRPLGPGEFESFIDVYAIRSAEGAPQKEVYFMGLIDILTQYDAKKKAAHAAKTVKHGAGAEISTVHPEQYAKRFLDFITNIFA
Experiment: HiBiT PIP4K2C degradation assay in MOLT-4 cells (endogenous PIP4K2C C-terminally tagged with HiBiT)
Format: cell-based
Parameters: untagged in primary human PBMCs and monocyte-derived dendritic cells
Conditions: 6 hours of incubation time, rather than 24 hours; MOLT-4, top concentration 10 micromolar; read-out: HiBIT-degradation MOLT4 PIP4k2C DC50 (6 hours, marked *)
In short: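 DC50 derived by Hill fit of luminescence from Nano-Glo HiBiT lytic detection. Cells were HiBiT knock-in MOLT-4 (C-terminal tag on endogenous PIP4K2C), exposed 6 h or 24 h at 37 C to compound, top concentration 10 micromolar, 3-fold steps, 10 points, duplicates.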

DC50, < 500 nM:
O=C1CC[C@H](Nc2ccc(C3CCN([C@H]4CC[C@H](C(=O)N[C@H]5CC[C@H](Nc6ncc(F)c(-c7cccc(-n8ccccc8=O)c7)n6)CC5)CC4)CC3)c(F)c2)C(=O)N1 [Compound 457, (1S,4R)-4-(4-(4-(((S)-2,6-dioxopiperidin-3-yl)amino)-2-fluorophenyl)piperidin-1-yl)-N-((1r,4R)-4-((5-fluoro-4-(3-(2-oxopyridin-1(2H)-yl)phenyl)pyrimidin-2-yl)amino)cyclohexyl)cyclohexane-1-carboxamide]
O=C1CCC(Nc2ccc(N3CCC(N4CCC(C(=O)N[C@H]5CC[C@H](Nc6ncc(F)c(-c7cccc(N8CCCCC8=O)c7)n6)CC5)CC4)C(F)C3)c(F)c2)C(=O)N1 (stereo partly drawn) [Compound 524, 1′-(4-((2,6-dioxopiperidin-3-yl)amino)-2-fluorophenyl)-3′-fluoro-N-((1r,4r)-4-((5-fluoro-4-(3-(2-oxopiperidin-1-yl)phenyl)pyrimidin-2-yl)amino)cyclohexyl)-[1,4′-bipiperidine]-4-carboxamide]
O=C1CCC(Nc2ccc(N3CCC(N4CCC(NC(=O)[C@H]5CC[C@H](Nc6ncc(F)c(-c7cccc(N8CCCOC8=O)c7)n6)CC5)CC4)CC3)c(F)c2)C(=O)N1 (stereo partly drawn) [Compound 522, trans-N-(1′-(4-((2,6-dioxopiperidin-3-yl)amino)-2-fluorophenyl)-[1,4′-bipiperidin]-4-yl)-4-((5-fluoro-4-(3-(2-oxo-1,3-oxazinan-3-yl)phenyl)pyrimidin-2-yl)amino)cyclohexane-1-carboxamide]
O=C1CCC(Nc2ccc(C3CCN(C4CC5(C4)CN(C(=O)O[C@H]4CC[C@H](Nc6ncc(F)c(-c7cccc(-n8ccccc8=O)c7)n6)CC4)C5)CC3)c(F)c2)C(=O)N1 (stereo partly drawn) [Compound 666, (trans)-4-((5-fluoro-4-(3-(2-oxopyridin-1 (2H)-yl)phenyl)pyrimidin-2-yl)amino)cyclohexyl 6-(4-(4-((2,6-dioxopiperidin-3-yl)amino)-2-fluorophenyl)piperidin-1-yl)-2-azaspiro[3.3]heptane-2-carboxylate]
O=C1CCC(Nc2ccc(N3CCC(N4CCC(C(=O)N[C@H]5CC[C@H](Nc6ncc(F)c(-c7cccc(C8CC8)c7)n6)CC5)CC4)CC3)c(F)c2)C(=O)N1 (stereo partly drawn) [Compound 504, trans-N-(4-((4-(3-cyclopropylphenyl)-5-fluoropyrimidin-2-yl)amino)cyclohexyl)-1′-(4-((2,6-dioxopiperidin-3-yl)amino)-2-fluorophenyl)-[1,4′-bipiperidine]-4-carboxamide]
O=C1CC[C@@H](Nc2ccc(N3CCN(C[C@H]4CC[C@H](CNC(=O)[C@H]5CC[C@H](Nc6ncc(F)c(-c7cccc(-n8ccccc8=O)c7)n6)CC5)CC4)CC3)c(F)c2)C(=O)N1 (single isomer, unassigned) [Compound 459]
O=C1CCC(Nc2ccc(N3CCC(N4CCC(C(=O)N[C@H]5CC[C@H](Nc6ncc(F)c(-c7cccc(-c8ccccc8)c7)n6)CC5)CC4)C(F)C3)c(F)c2)C(=O)N1 (stereo partly drawn) [Compound 656, N-((1r,4r)-4-((4-([1,1′-biphenyl]-3-yl)-5-fluoropyrimidin-2-yl)amino)cyclohexyl)-1′-(4-((2,6-dioxopiperidin-3-yl)amino)-2-fluorophenyl)-3′-fluoro-[1,4′-bipiperidine]-4-carboxamide]
O=C1CCC(Nc2ccc(N3CCN(C[C@H]4CC[C@H](C(=O)N5CCC(Nc6ncc(F)c(-c7cccc(N8CCCOC8=O)c7)n6)CC5)CC4)CC3)c(F)c2)C(=O)N1 (stereo partly drawn) [Compound 667, 3-((3-fluoro-4-(4-((trans-4-(4-((5-fluoro-4-(3-(2-oxo-1,3-oxazinan-3-yl)phenyl)pyrimidin-2-yl)amino)piperidine-1-carbonyl)cyclohexyl)methyl)piperazin-1-yl)phenyl)amino)piperidine-2,6-dione]
O=C1CCC(Nc2ccc(N3CCC(N4CCC(C(=O)NC5CCC(Nc6ncc(F)c(-c7cccc(-c8ccc[nH]c8=O)c7)n6)CC5)CC4)CC3)c(F)c2)C(=O)N1 [Compound 702, trans-1′-(4-(((S)-2,6-dioxopiperidin-3-yl)amino)-2-fluorophenyl)-N-((1r,4r)-4-((5-fluoro-4-(3-(2-oxo-1,2-dihydropyridin-3-yl)phenyl)pyrimidin-2-yl)amino)cyclohexyl)-[1,4′-bipiperidine]-4-carboxamide]
O=C1CC[C@@H](Nc2ccc(N3CCN([C@H]4CC[C@H](C(=O)N[C@H]5CC[C@H](Nc6ncc(F)c(-c7cccc(-c8ccc[nH]c8=O)c7)n6)CC5)CC4)CC3)c(F)c2)C(=O)N1 [Compound 544, trans-4-(4-(4-(((R)-2,6-dioxopiperidin-3-yl)amino)-2-fluorophenyl)piperazin-1-yl)-N-((trans)-4-((5-fluoro-4-(3-(2-oxo-1,2-dihydropyridin-3-yl)phenyl)pyrimidin-2-yl)amino)cyclohexyl)cyclohexane-1-carboxamide]
O=C1CCC(Nc2ccc(N3CCN([C@H]4CC[C@H](C(=O)N[C@H]5CC[C@H](Nc6ncc(F)c(-c7cccc(N8CCCCC8)c7)n6)CC5)CC4)CC3)c(F)c2)C(=O)N1 (stereo partly drawn) [Compound 541, trans-4-(4-(4-((2,6-dioxopiperidin-3-yl)amino)-2-fluorophenyl)piperazin-1-yl)-N-(trans-4-((5-fluoro-4-(3-(piperidin-1-yl)phenyl)pyrimidin-2-yl)amino)cyclohexyl)cyclohexane-1-carboxamide]

Same assay, conditions: 24 hours incubation, MOLT-4, top concentration 10 micromolar; read-out: HiBIT-degradation MOLT4 PIP4k2C 24 hours DC50

DC50, < 500 nM:
O=C(COc1ccc2c(c1)CN(C1CCC(=O)NC1=O)C2=O)NCCCC(=O)N1CCC(C(=O)N2CCC(Nc3ncc(Cl)c(-c4cccc(-c5ccccc5)c4)n3)CC2)CC1 (stereo not drawn) [Compound 68, N-(4-(4-(4-((4-([1,1′-biphenyl]-3-yl)-5-chloropyrimidin-2-yl)amino)piperidine-1-carbonyl)piperidin-1-yl)-4-oxobutyl)-2-((2-(2,6-dioxopiperidin-3-yl)-1-oxoisoindolin-5-yl)oxy)acetamide]
O=C1CCC(n2c(=O)oc3cc(C4CCN(CC5CCN(CC(=O)N[C@H]6CC[C@H](Nc7ncc(F)c(-c8cccc(N9CCCOC9=O)c8)n7)CC6)CC5)CC4)ccc32)C(=O)N1 (stereo partly drawn) [Compound 362, trans-2-(4-((4-(3-(2,6-dioxopiperidin-3-yl)-2-oxo-2,3-dihydrobenzo[d]oxazol-6-yl)piperidin-1-yl)methyl)piperidin-1-yl)-N-(4-((5-fluoro-4-(3-(2-oxo-1,3-oxazinan-3-yl)phenyl)pyrimidin-2-yl)amino)cyclohexyl)acetamide]
Cn1nc(C2CCC(=O)NC2=O)c2ccc(C3CCN(CC4CCN(CC(=O)N[C@H]5CC[C@H](Nc6ncc(F)c(-c7cccc(-n8ccccc8=O)c7)n6)CC5)CC4)CC3)cc21 (stereo partly drawn) [Compound 304, trans-2-(4-((4-(3-(2,6-dioxopiperidin-3-yl)-1-methyl-1H-indazol-6-yl)piperidin-1-yl)methyl)piperidin-1-yl)-N-(4-((5-fluoro-4-(3-(2-oxopyridin-1(2H)-yl)phenyl)pyrimidin-2-yl)amino)cyclohexyl)acetamide]
O=C1CCC(N2Cc3cc(C4CCN(C5CCCN(CC(=O)N6CCC(Nc7ncc(Cl)c(-c8cccc(-c9ccc(F)cc9)c8)n7)CC6)C5)CC4)ccc3C2=O)C(=O)N1 (stereo not drawn) [Compound 705, 3-(5-(1′-(2-(4-((5-chloro-4-(4′-fluoro-[1,1′-biphenyl]-3-yl)pyrimidin-2-yl)amino)piperidin-1-yl)-2-oxoethyl)-[1,3′-bipiperidin]-4-yl)-1-oxoisoindolin-2-yl)piperidine-2,6-dione]
O=C1CCC(N2Cc3cc(OC4CCN(C5CCN(CC(=O)N6CCC(Nc7ncc(Cl)c(-c8cccc(-c9ccccc9)c8)n7)CC6)CC5)CC4)ccc3C2=O)C(=O)N1 (stereo not drawn) [Compound 87, 3-(5-((1′-(2-(4-((4-([1,1′-biphenyl]-3-yl)-5-chloropyrimidin-2-yl)amino)piperidin-1-yl)-2-oxoethyl)-[1,4′-bipiperidin]-4-yl)oxy)-1-oxoisoindolin-2-yl)piperidine-2,6-dione]
O=C1CCC(n2c(=O)oc3cc(C4CCN(CCC5(O)CCN(C(=O)[C@H]6CCC[C@@H](Nc7ncc(F)c(-c8cccc(-n9ccccc9=O)c8)n7)C6)CC5)CC4)ccc32)C(=O)N1 (relative stereo) [Compound 347, cis-3-(6-(1-(2-(1-(3-((5-fluoro-4-(3-(2-oxopyridin-1(2H)-yl)phenyl)pyrimidin-2-yl)amino)cyclohexane-1-carbonyl)-4-hydroxypiperidin-4-yl)ethyl)piperidin-4-yl)-2-oxobenzo[d]oxazol-3 (2H)-yl)piperidine-2,6-dione]
Cn1c(=O)n(C2CCC(=O)NC2=O)c2ccc(C3CCN(CCN4CCN(C(=O)[C@H]5CCC[C@@H](Nc6ncc(Cl)c(-c7cccc(-c8ccccc8)c7)n6)C5)CC4)CC3)cc21 (relative stereo) [Compound 49, cis-3-(5-(1-(2-(4-(3-((4-([1,1′-biphenyl]-3-yl)-5-chloropyrimidin-2-yl)amino)cyclohexane-1-carbonyl)piperazin-1-yl)ethyl)piperidin-4-yl)-3-methyl-2-oxo-2,3-dihydro-1H-benzo[d]imidazol-1-yl)piperidine-2,6-dione]
